These results are taken from patent US20020169111A1, “Reversal of multidrug resistance in human colon carcinoma cells” (American Cyanamid Comany, priority 1998, published 2002).

The data set concerns S1-M1-3.2 cells. The note with it: for Toxicity (>20%): compound alone, concentration that causes greater than 20% cell death of S1-M1-3.2 cells; for IC50: read-out: IC50 (μM), resensitizing S1-M1-3.2 cells to mitoxantrone, with 3.2 μM mitoxantrone, 50% cancer cell death; for Per Cent Survival Alone: 3 days; for Difference Score: survival alone minus survival with 3.2 μM mitoxantrone. Here is the method:
One of the first reported molecules with reversing activity was verapamil, a calcium channel blocker. […] Cells were plated into 96-well dishes (100 μl/well) in growth medium supplemented with 5% FBS. […] Reversal agents were tested from 0.1-80 μM (triplicate points per dose). In parallel wells, cells were grown in the presence of the reversal agent alone.
The Difference Score is the difference in the percentage of cells surviving when the drug was given alone minus the percentage of cells surviving when the drug was given along with the antitumor agent.
Cell survival was estimated using the Sulforhodamine (SRB) assay.

Structures are written as SMILES. Where two headings read alike, the source gives them in different places.

In the case of `O=C(NCCC[C@H]1c2[nH]c3ccccc3c2C[C@H]2C(=O)N3CCC[C@H]3C(=O)N21)OCc1ccccc1` [Example 24b, Benzyl 3-[(5aS,12S,14aS)-5,14-dioxo-2,3,5a,6,11,12,14,14a-octahydro-1H,5H-pyrrolo[1″,2″:4′,5′]pyrazino[2′,1′:6,1]pyrido[3,4-b]indol-12-yl]propylcarbamate], the “Toxicity (>20%)” value amounted to 20 µM and the IC50 (in general, the point on the concentration scale where inhibition reaches its midpoint) is 2 µM.
Regarding `COc1ccc2c3c(n(CC=C(C)C)c2c1)[C@H](C=C(C)C)N1C(=O)[C@@H]2CCCN2C(=O)[C@@H]1C3` [Example 34], the “Toxicity (>20%)” value worked out at 2.0 µM and the IC50 is 1 µM.
In the case of `COc1ccc2c3c(n(CC=C(C)C)c2c1)[C@H](C=C(C)C)N1C(=O)[C@@H]2CCCN2C(=O)[C@]1(O)[C@H]3O` [Fumitremorgin B], the “Toxicity (>20%)” value is 15.0 µM and the IC50 worked out at 5 µM. In addition, for the setting “S1-M1-3.2 cells”, the “concentration giving 40% cell death (compound alone)” value came out at 20 µM. The “activity in the reversal assay compared to FTC, fold lower” value (S1-M1-3.2 cells, Table 7 versus Table 8) is listed as 14 fold. Moreover, for the setting “S1-M1-3.2 cells, drug 0.1 μM”, the “Per Cent Survival with 3.2 μM mitoxantrone” value was determined as 91 ± 5 Per Cent and the “Difference Score” value was 3. Further, the “Per Cent Survival Alone” value (S1-M1-3.2 cells, drug 0.1 μM alone) is 94 ± 1 Per Cent. Further, for the setting “S1-M1-3.2 cells, drug 0.5 μM”, the “Per Cent Survival with 3.2 μM mitoxantrone” value is recorded as 90 ± 3 Per Cent and the “Difference Score” value stood at 5. The “Per Cent Survival Alone” value (S1-M1-3.2 cells, drug 0.5 μM alone) was determined as 95 ± 2 Per Cent. Also, where the note is “S1-M1-3.2 cells, drug 1 μM”, the “Per Cent Survival with 3.2 μM mitoxantrone” value was 87 ± 1 Per Cent and the “Difference Score” value is 6. Besides, the “Per Cent Survival Alone” value (S1-M1-3.2 cells, drug 1 μM alone) is reported as 93 ± 0 Per Cent. Also, where the note is “S1-M1-3.2 cells, drug 5 μM”, the “Per Cent Survival with 3.2 μM mitoxantrone” value is recorded as 51 ± 4 Per Cent and the “Difference Score” value turned out to be 39. Moreover, under “S1-M1-3.2 cells, drug 5 μM alone”, the “Per Cent Survival Alone” value was 90 ± 2 Per Cent. For the same compound, where the note is “S1-M1-3.2 cells, drug 10 μM”, the “Per Cent Survival with 3.2 μM mitoxantrone” value amounted to 35 ± 1 Per Cent and the “Difference Score” value worked out at 56. The “Per Cent Survival Alone” value (S1-M1-3.2 cells, drug 10 μM alone) worked out at 91 ± 4 Per Cent. Further, for the setting “S1-M1-3.2 cells, drug 20 μM”, the “Per Cent Survival with 3.2 μM mitoxantrone” value was found to be 29 ± 1 Per Cent and the “Difference Score” value was found to be 30. Moreover, the “Per Cent Survival Alone” value (S1-M1-3.2 cells, drug 20 μM alone) is given as 59 ± 10 Per Cent. Under “S1-M1-3.2 cells, drug 40 μM”, the “Per Cent Survival with 3.2 μM mitoxantrone” value turned out to be 20 ± 2 Per Cent and the “Difference Score” value is recorded as 21. The “Per Cent Survival Alone” value (S1-M1-3.2 cells, drug 40 μM alone) was determined as 41 ± 7 Per Cent. Also, under “S1-M1-3.2 cells, drug 80 μM”, the “Per Cent Survival with 3.2 μM mitoxantrone” value was found to be 10 ± 1 Per Cent and the “Difference Score” value was found to be 6. For the same compound, the “Per Cent Survival Alone” value (S1-M1-3.2 cells, drug 80 μM alone) came to 16 ± 2 Per Cent.
`CC(C)CC1c2[nH]c3ccccc3c2CC2C(=O)N3CCCCC3C(=O)N21` [Example 21b, (6aR,13S,15aR)-13-isobutyl-1,2,3,4,6a,7,12,13,15a-nonahydro-6H,15H-pyrido[1″,2″:4′,5′]pyrazino[2′,1′:6,1]pyrido[3,4-b]indole-6H,15H-dione]: the “Toxicity (>20%)” value is greater than 80.0 µM and the IC50 stood at 6 µM.
Consider `NCCC[C@H]1c2[nH]c3ccccc3c2C[C@H]2C(=O)N3CCC[C@H]3C(=O)N21` [Example 29b, (5aS,12S,14aS)-12-(3-aminopropyl)-1,2,3,5a,6,11,12,14a-octahydro-5H,14H-pyrrolo[1″,2″:4′,5′]pyrazino[2′,1′:6,1]pyrido[3,4-b]indole-5,14-dione], for which the “Toxicity (>20%)” value was greater than 80 µM and the IC50 is greater than 80 µM.
Regarding `CCCCCCCCC[C@H]1c2[nH]c3ccccc3c2C[C@H]2C(=O)N3CCC[C@H]3C(=O)N21` [Example 28, (5aS,12S,14aS)-12-nonyl-1,2,3,5a,6,11,12,14a-octahydro-5H,14H-pyrrolo[1″,2″:4′,5′]pyrazino[2′,1′:6,1]pyrido[3,4-b]Indole-5,14-dione], the “Toxicity (>20%)” value stood at 7.0 µM and the IC50 amounted to 0.25 µM.
As to `CCCC(=O)NCCC[C@H]1c2[nH]c3ccccc3c2C[C@H]2C(=O)N3CCC[C@H]3C(=O)N21` [Example 31, N-{3-[(5aS,12S,14aS)-5,14-dioxo-2,3,5a,6,11,12,14,14a-octahydro-1H,5H-pyrrolo[1″,2″:4′,5′]pyrazino[2′,1′:6,1]pyrido[3,4-b]indol-12-yl]propyl}Butanamide], the “Toxicity (>20%)” value was greater than 80 µM and the IC50 was 65 µM.
Consider `CC(C)C[C@H]1c2[nH]c3ccccc3c2C[C@H]2C(=O)N3CCC[C@H]3C(=O)N21` [Example 14b, (5aS,12S,14aS)-12-isobutyl-1,2,3,5a,6,11,12,14a-octahydro-5H,14H-pyrrolo[1″,2″:4′,5′]pyrazino[2′,1′:6,1]pyrido[3,4-b]indole-5,14-dione], for which the “Toxicity (>20%)” value was determined as 35.0 µM and the IC50 stood at 1 µM.
Turning to `CC(C)C[C@H]1c2[nH]c3ccccc3c2C[C@@H]2C(=O)N3CCC[C@H]3C(=O)N21` [Example 15b, (5aR,12S,14aS)-12-isobutyl-1,2,3,5a,6,11,12,14a-octahydro-5H,14H-pyrrolo[1″,2″:4′,5′]pyrazino[2′,1′:6,1]pyrido[3,4-b]indole-5,14-dione], the “Toxicity (>20%)” value was greater than 80.0 µM and the IC50 stood at 15 µM.
For `CC(C)C[C@H]1c2[nH]c3ccccc3c2C[C@H]2C(=O)N3CC[C@H]3C(=O)N21` [Example 22b, (4aS,11S,13aS)-11-isobutyl-1,4a,5,10,11,13a-hexahydro-4H-azeto[1″,2″:4′,5′]pyrazino[2′,1′:6,1]pyrido[3,4-b]indole-4,13(2H)-dione] the same measures were greater than 80.0 µM and 2.5 µM.
For `O=C(NCCC[C@@H]1c2[nH]c3ccccc3c2C[C@H]2C(=O)N3CCC[C@H]3C(=O)N12)OCc1ccccc1` [Example 24a, Benzyl 3-[(5aS,12R,14aS)-5,14-dioxo-2,3,5a,6,11,12,14,14a-octahydro-1H,5H-pyrrolo[1″,2″:4′,5′]pyrazino[2′,1′:6,1]pyrido[3,4-b]indol-12-yl]propylcarbamate] the same measures were 50 µM and 10 µM.
For `CC(C)=C[C@H]1c2[nH]c3ccccc3c2C[C@H]2C(=O)N3CCC[C@H]3C(=O)N21` [Example 27], the “Toxicity (>20%)” value was greater than 80 µM and the IC50 was determined as 2.5 µM.
For `O=C1[C@@H]2Cc3c([nH]c4ccccc34)[C@@H](CCCCCc3ccccc3)N2C(=O)[C@@H]2CCCN12` [Example 23a, (5aS,12R,14aS)-12-(5-phenylpentyl)-1,2,3,5a,6,11,12,14a-octahydro-5H,14H-pyrrolo[1″,2″:4′,5′]pyrazino[2′,1′:6,1]pyrido[3,4-b]indole-5,14-dione], in that order: 7.5 µM and 0.3 µM.
On to `CC(C)C[C@@H]1c2[nH]c3ccccc3c2C[C@H]2C(=O)N3CCC[C@H]3C(=O)N12` [Example 14a, (5aS,12R,14aS)-12-isobutyl-1,2,3,5a,6,11,12,14a-octahydro-5H,14H-pyrrolo[1″,2″:4′,5′]pyrazino[2′,1′:6,1]pyrido[3,4-b]indole-5,14-dione], for which the “Toxicity (>20%)” value came out at 80.0 µM and the IC50 was found to be 80 µM.
For `NCCC[C@@H]1c2[nH]c3ccccc3c2C[C@H]2C(=O)N3CCC[C@H]3C(=O)N12` [Example 29a, (5aS,12R,14aS)-12-(3-aminopropyl)-1,2,3,5a,6,11,12,14a-octahydro-5H,14H-pyrrolo[1″,2″:4′,5′]pyrazino[2′,1′:6,1]pyrido[3,4-b]indole-5,14-dione] the same measures were greater than 80 µM and 20 µM.
For `O=C(O)CCC(=O)NCCC[C@H]1c2[nH]c3ccccc3c2C[C@H]2C(=O)N3CCC[C@H]3C(=O)N21` [Example 32, 4-({3-[(5aS,12S,14aS)-5,14-dioxo-2,3,5a,6,11,12,14,14a-octahydro-1H,5H-pyrrolo[1″,2″:4′,5′]pyrazino[2′,1′:6,1]pyrido[3,4-b]indol-12-yl]propyl}amino)-4-oxobutanoic acid], in that order: greater than 80 µM and greater than 80 µM.
On to `CC(C)C[C@@H]1c2[nH]c3ccccc3c2C[C@H]2C(=O)N3CC[C@H]3C(=O)N12` [Example 22a, (4aS,11R,13aS)-11-isobutyl-1,4a,5,10,11,13a-hexahydro-4H-azeto[1″,2″:4′,5′]pyrazino[2′,1′:6,1]pyrido[3,4-b]indole-4,13(2H)-dione], for which the “Toxicity (>20%)” value stood at 80.0 µM and the IC50 was determined as 15 µM.
For `CC(C)CC1c2[nH]c3ccccc3c2CC2C(=O)N3CCCCC3C(=O)N21` [Example 19b, (6aR,13S,15aS-13-isobutyl-1,2,3,4,6a,7,12,13,15a-nonahydro-6H,15H-pyrido[1″,2″:4′,5′]pyrazino[2′,1′:6,1]pyrido[3,4-b]indole-6H,15H-dione], in that order: greater than 80.0 µM and 4 µM.
Turning to `CC(C)CC1c2[nH]c3ccccc3c2CC2C(=O)N3CCCCC3C(=O)N21` [Example 20a, (6aS,13R,15aR)-13-isobutyl-1,2,3,4,6a,7,12,13,15a-nonahydro-6H,15H-pyrido[1″,2″:4′,5′]pyrazino[2′,1′:6,1]pyrido[3,4-b]indole-6H,15H-dione], the “Toxicity (>20%)” value was determined as 80.0 µM and the IC50 is 30 µM.
